# Results reported in patent publication US7999137B2, “Pesticide bi-phenyl-amidine derivatives” (Bayer Cropscience AG, priority 2006, dated 2011).
# Experiment: logP by HPLC on reversed-phase column (C 18), EEC Directive 79/831 Annex V.A8
# Format: physicochemical
# Settings: HPLC reversed-phase C 18; 40° C.; 0.1% aqueous formic acid and acetonitrile, linear gradient 10% to 90% acetonitrile
# Protocol: Temperature: 40° C.; Mobile phases: 0.1% aqueous formic acid and acetonitrile; linear gradient from 10% acetonitrile to 90% acetonitrile.
# Calibration was carried out using unbranched alkan-2-ones (comprising 3 to 16 carbon atoms) with known logP values (determination of the logP values by the retention times using linear interpolation between two successive alkanones).
row,Compound,log p (HCOOH)
1,Cc1cc(-c2ccc(C(C)(C)C)cc2)c(C)cc1N=CN(C)C(C)C [Compound 161],2.77
2,CCN(C)C=Nc1cc(C)c(-c2cccc(Cl)c2)cc1C [Compound 133],2.15
3,CCN(C)C=Nc1ccc(-c2ccc(OC)c(OC)c2OC)cc1F [Compound 12],1.50
4,CCN(C)C=Nc1ccc(-c2ccc(OC)cc2)cc1F [Compound 88],1.59
5,CCN(C)C=Nc1ccc(-c2ccc(Oc3ccccc3)cc2)cc1Cl [Compound 71],2.45
6,CCc1cc(-c2ccc(C(C)=NOC)cc2)ccc1N=CN(C)CC [Compound 53],2.19
7,C=CCN(C)C=Nc1cc(C)c(-c2ccc(C(F)(F)F)c(Cl)c2)cc1C [Compound 144],2.70
8,Cc1cc(-c2ccc(C(C)(C)C)cc2)ccc1N=C1CCCCN1 [Compound 138],2.45
9,CCN(C)C=Nc1cc(C)c(-c2cc(OC)c(OC)c(OC)c2)cc1C [Compound 39],1.68
10,CCN(C)C=Nc1ccc(-c2ccc(Cl)c(C(F)(F)F)c2)cc1F [Compound 20],2.15
11,COc1ccc(-c2cc(OC)c(N=CN(C)C(C)C)cc2OC)cc1Cl [Compound 102],1.95
12,CCc1cc(-c2ccc(F)c(Cl)c2)ccc1N=CN(C)CC [Compound 10],2.17
13,CCN(C)C=Nc1cc(C)c(-c2ccc(C(C)(C)C)cc2)cc1Cl [Compound 106],2.71
14,CCN(C)C=Nc1cc(C)c(-c2ccc(C(F)(F)F)cc2)cc1C [Compound 132],2.19
15,Cc1cc(-c2ccc(Cl)cc2)c(C)cc1N=C1NCCCN1 [Compound 122],2.08
16,CCN(C)C=Nc1ccc(-c2ccc(F)c(C)c2)cc1Cl [Compound 67],2.10
17,Cc1cc(-c2ccc(C(F)(F)F)c(Cl)c2)c(C)cc1N=CN1CCCCC1 [Compound 145],2.78
18,CCN(C)C=Nc1cc(C)c(-c2ccc(C(C)(C)C)c(Br)c2)cc1C [Compound 164],3.13
19,CCN(C)C=Nc1cc(C)c(-c2ccc(Cl)c(Cl)c2)cc1C [Compound 44],2.27
20,Cc1ccc(-c2cc(C)c(N=CN3CCCCC3)cc2C)cc1Cl [Compound 149],2.53

row,Compound,log p (HCOOH)
1,CCc1cc(-c2ccc(Cl)c(F)c2)ccc1N=CN(C)CC [Compound 52],2.31
2,CCN(C)C=Nc1ccc(-c2ccc(Cl)cc2Cl)cc1C(F)(F)F [Compound 85],2.39
3,CCN(C)C=Nc1ccc(-c2ccc(Cl)cc2Cl)cc1F [Compound 86],2.05
4,CCN(C)C=Nc1cc(C)c(-c2ccc(S(=O)(=O)C(F)(F)F)cc2)cc1C [Compound 174],2.21
5,CCN(C)C=Nc1ccc(-c2ccc(C(C)=NOC)cc2)cc1C [Compound 31],2.02
6,CCN(C)C=Nc1cc(C)c(-c2ccc(F)c(Cl)c2)cc1C [Compound 137],2.02
7,CCN(C)C=Nc1ccc(-c2ccc(OCc3ccccc3)cc2)cc1C [Compound 36],2.46
8,CCCN(C)C=Nc1cc(C)c(-c2ccc([Si](C)(C)C)cc2)cc1C [Compound 152],3.10
9,CCN(C)C=Nc1ccc(-c2ccc(OC)c(OC)c2)cc1C(F)(F)F [Compound 94],1.71
10,CCCN(C)C=Nc1cc(C)c(-c2ccc(C)c(Cl)c2)cc1C [Compound 147],2.56
11,CCON=C(C)c1ccc(-c2cc(C)c(N=CN(C)CC)cc2C)cc1 [Compound 139],2.55
12,CCN(C)C=Nc1cc(C)c(-c2ccc(Cl)c(C(F)(F)F)c2)cc1Cl [Compound 107],2.30
13,Cc1cc(-c2ccc(C(C)(C)C)cc2)c(C)cc1N=CN1CCCC1 [Compound 119],2.79
14,CCN(C)C=Nc1cc(OC)c(-c2ccc(OC)c(Cl)c2)cc1OC [Compound 97],1.83
15,CCN(C)C(S)=Nc1cc(C)c(-c2ccc(C(C)(C)C)cc2)cc1C [Compound 28],4.58
16,CCN(C)C=Nc1ccc(-c2ccc(OCc3ccccc3)cc2)cc1F [Compound 92],2.27
17,CCc1cc(-c2ccc(F)cc2)ccc1N=CN(C)CC [Compound 23],1.79
18,CCN(C)C=Nc1ccc(-c2ccc(C=NOC)cc2)cc1C(F)(F)F [Compound 76],2.01
19,CCN(C)C=Nc1ccc(-c2ccc(COC)cc2)cc1C(F)(F)F [Compound 93],1.76
20,CCN(C)C=Nc1ccc(-c2ccc(Cl)cc2C)cc1Cl [Compound 113],2.03

row,Compound,log p (HCOOH)
1,CCN(C)C=Nc1cc(C)c(-c2ccc(OC(C)(C)C)cc2)cc1C [Compound 160],2.28
2,CCN(C)C=Nc1ccc(-c2ccc(C(C)=NOC)cc2)cc1C(F)(F)F [Compound 78],2.24
3,C=CCN(C)C=Nc1cc(C)c(-c2ccc([Si](C)(C)C)cc2)cc1C [Compound 153],3.08
4,CCc1cc(-c2ccc(C=NOC)cc2)ccc1N=CN(C)CC [Compound 51],2.09
5,C=CCN(C)C=Nc1cc(C)c(-c2ccc(C(C)=NOCC)cc2)cc1C [Compound 140],2.60
6,CCN(C)C=Nc1ccc(-c2ccc(Br)cc2)cc1C(F)(F)F [Compound 80],2.24
7,CCN(C)C=Nc1ccc(-c2ccc(Cl)c(Cl)c2)cc1Cl [Compound 66],2.25
8,CCN(C)C=Nc1ccc(-c2ccc(Cl)cc2C)cc1C [Compound 111],2.23
9,C=CCN(C)C=Nc1cc(C)c(-c2ccc(C(C)C)cc2)cc1C [Compound 157],2.60
10,Cc1cc(-c2ccc(C(C)C)cc2)c(C)cc1N=CN1CCCCC1 [Compound 158],2.60
11,CCN(C)C=Nc1cc(C)c(-c2ccc(C(C)=NOC)cc2)cc1C [Compound 42],2.24
12,CCN(C)C=Nc1ccc(-c2ccc(F)cc2)cc1C [Compound 126],1.84
13,CCc1cc(-c2ccc(F)c(C)c2)ccc1N=CN(C)CC [Compound 55],1.98
14,CCN(C)C=Nc1ccc(-c2ccc(F)c(C)c2)cc1C(F)(F)F [Compound 82],2.20
15,CCN(C)C=Nc1ccc(-c2ccc(F)c(Cl)c2)cc1Cl [Compound 3],1.92
16,CCN(C)C=Nc1cc(OC)c(-c2ccc(C)cc2)cc1OC [Compound 98],1.89
17,CCN(C)C=Nc1ccc(-c2cc(OC)c(OC)c(OC)c2)cc1C [Compound 29],1.56
18,CCc1cc(-c2ccc(OCc3ccccc3)cc2)ccc1N=CN(C)CC [Compound 60],2.39

# Same assay, conditions: reversed-phase HPLC column (C 18); HPLC reversed-phase C 18; 40° C.; 0.1% aqueous formic acid and acetonitrile, linear gradient 10% to 90% acetonitrile; read-out: log p (HCOOH)
row,Compound,chromatographic logP
1,"Cc1cc(-c2ccc(C(C)(C)C)cc2)c(C)cc1N=C1CCCCN1 [Compound 121, 4′-tert-butyl-2,5-dimethyl-N-[piperidin-2-ylidene]biphenyl-4-amine]",2.6
2,"CCN(C)/C=N/c1cc(C)c(-c2ccc(C(C)(C)C)cc2)cc1C [Compound 8, N′-(4′-tert-butyl-2,5-dimethylbiphenyl-4-yl)-N-ethyl-N-methylimidoformamide]",2.67

# Same assay, conditions: reversed-phase HPLC column (C 18); pH 2.3; HPLC, 0.1% aqueous formic acid and acetonitrile, 40° C.; read-out: log P (pH 2.3)
row,Compound,chromatographic logP
1,"Cc1cc(-c2ccc(C(C)(C)C)cc2)c(C)cc1N [Intermediate (VII-1), 4′-tert-butyl-2,5-dimethylbiphenyl-4-amine]",3.65
2,"Cc1cc(-c2ccc(C(C)(C)C)cc2)c(C)cc1N=C1CCCCN1 [Compound 121, 4′-tert-butyl-2,5-dimethyl-N-[piperidin-2-ylidene]biphenyl-4-amine]",2.6
3,"CCN(C)/C=N/c1cc(C)c(-c2ccc(C(C)(C)C)cc2)cc1C [Compound 8, N′-(4′-tert-butyl-2,5-dimethylbiphenyl-4-yl)-N-ethyl-N-methylimidoformamide]",2.67
